From the NIST ThermoML archive (doi:10.1021/je400529k)

Assay: xn = mol fraction of the nth substance listed
Settings: 101 kPa, Liquid; for viscosity: Capillary tube (Ostwald / Ubbelohde) method; for mass density: Vibrating tube method

C1C[C@@H]2[C@H]3CC[C@H](C3)[C@@H]2C1 [exo-tetrahydrodicyclopentadiene] + CC1CCCCC1
Settings	mass density, 293.15 K [kg/m3]	mass density, 298.15 K [kg/m3]	mass density, 303.15 K [kg/m3]	mass density, 308.15 K [kg/m3]	viscosity, 293.15 K [mPa·s]	viscosity, 298.15 K [mPa·s]	viscosity, 303.15 K [mPa·s]	viscosity, 308.15 K [mPa·s]
x1 = 0.1	788.79	784.53	780.25	775.95	0.842	0.785	0.735	0.692
x1 = 0.2009	807.71	803.5	799.26	795.01	0.959	0.892	0.833	0.781
x1 = 0.301	825.81	821.64	817.46	813.26	1.102	1.023	0.952	0.89
x1 = 0.3999	843.02	838.89	834.75	830.6	1.267	1.171	1.087	1.013
x1 = 0.4999	859.94	855.86	851.75	847.64	1.454	1.34	1.239	1.151
x1 = 0.5992	876.09	872.05	867.99	–	1.67	1.534	1.416	1.312
x1 = 0.7004	891.98	887.96	883.94	–	1.925	1.762	1.621	1.497
x1 = 0.7995	906.95	902.99	899.01	–	2.22	2.026	1.857	1.709
x1 = 0.9011	921.82	917.88	913.94	–	2.582	2.347	2.146	1.967
x1 = 1	935.72	931.84	927.94	–	2.992	2.71	2.467	2.255
